Literature values in US6475518B1, “Methods and compositions for treatment of disorders associated with chlamydia and similar bacterial infection” (priority 1998, dated 2002).

Assays:
C. pneumoniae [1] = settings: Gupta S, et al., Circulation 1997
C. pneumoniae [2] = settings: Gurfinkel E, et al., Lancet 1997; limited numbers, no prolonged follow-up yet

Row | SMILES | Clinical benefit of monotherapy (C. pneumoniae [1]) | Clinical benefit of sole therapy (C. pneumoniae [2])
1 | CC[C@H]1OC(=O)[C@H](C)[C@@H](O[C@H]2C[C@@](C)(OC)[C@@H](O)[C@H](C)O2)[C@H](C)[C@@H](O[C@@H]2O[C@H](C)C[C@H](N(C)C)[C@H]2O)[C@](C)(O)C[C@@H](C)CN(C)[C@H](C)[C@@H](O)[C@]1(C)O [azithromycin] | the benefit was not sustained after initial therapy | 
2 | CC[C@H]1OC(=O)[C@H](C)[C@@H](O[C@H]2C[C@@](C)(OC)[C@@H](O)[C@H](C)O2)[C@H](C)[C@@H](O[C@@H]2O[C@H](C)C[C@H](N(C)C)[C@H]2O)[C@](C)(O)C[C@@H](C)/C(=N\OCOCCOC)[C@H](C)[C@@H](O)[C@]1(C)O [roxithromycin] |  | a benefit was described
